Assay results as given in patent publication US6432962B1, “Benzophenones as inhibitors of IL-1β and TNF-α” (Leo Pharmaceutical Products Ltd. A/S, priority 2000, dated 2002).

Key:
[1] = system: TNF-α secretion, LPS stimulated peripheral blood mononuclear cells; assay: Inhibition of TNF-α secretion from LPS stimulated peripheral blood mononuclear cells; type: cell-based; conditions: LPS stimulated human PBMC, 18 hours, ELISA; read-out: Inhibition of cytokines in vitro, median inhibition concentration (IC50), TNF-α
Procedure: (§1) To study the effect of the compound of the present invention in vitro the inhibition of the IL-1β and TNF-α secretion was measured using the following procedure: Cytokine production was measured in the media from lipopolysaccharide (LPS) stimulated peripheral blood mononuclear cells. The mononuclear cells were isolated from human peripheral blood by Lymphoprep® (Nycomed, Norway) fractionation and suspended in RPMI 1640 (growth medium) with foetal calf serum (FCS, 2%), at a concentration of 5×10^5 cells/ml. The cells were incubated in 24-well tissue culture plates in 1 mL aliquots. Test compounds were dissolved in dimethylsulfoxide (DMSO, 10 mM) and were diluted with the medium. Compounds were added to the cells for 30 minutes, then LPS ([…] final concentration) was added. The plates were incubated for 18 hours, and the concentration of IL-1β and TNF-α in the medium was determined by enzyme-linked immunosorbent assays. The median inhibitory concentrations (IC50) of the compounds were calculated.

[2] = system: Human polymorphonuclear (PMN) granulocytes, superoxide anion generation; assay: Inhibition of PMN superoxide secretion (ferricytochrome C reduction); type: cell-based; conditions: human PMN primed with TNF-α, fMLP stimulated; read-out: Inhibition of PMN-superoxide production in vitro, median inhibition concentration (IC50)
Procedure: The compounds of the present invention also show similar activities in the ability to inhibit PMN (polymorphonuclear) superoxide secretion which is also indicative of potentially useful anti-inflammatory drugs. The compounds were tested using the following procedure: Human polymorphonuclear (PMN) granulocytes were isolated from human blood by dextran sedimentation, Lymphoprep® fractionation and hypotonic lysis of contaminating erythrocytes. Superoxide anion generation was measured as the superoxide dismutase inhibitable reduction of ferricytochrome C (Madhu, S. B. et al, Inflammation, 16, 241, (1992)). The cells were suspended in Hanks' balanced salt solution, and incubated for 10 minutes at 37° C. with test compounds. The cells were primed by the addition of TNF-α (3 ng/mL final concentration) for 10 minutes, and then ferricytochrome C, (final concentration 750 μg/mL), bovine serum albumin (BSA, final concentration 1 mg/mL) and formylmethionyl-leucyl-phenylalanine (fMLP, final concentration 10^-7 M) were added for 3 minutes. The cells were chilled on ice, and were spun down. The optical densities in the cell-free supernatant was measured in a spectrophotometer. The median inhibitory concentration (IC50) of the compounds was calculated.

[3] = system: IL-1β secretion, LPS stimulated peripheral blood mononuclear cells; assay: Inhibition of IL-1β secretion from LPS stimulated peripheral blood mononuclear cells; type: cell-based; conditions: LPS stimulated human PBMC, 18 hours, ELISA; read-out: Inhibition of cytokines in vitro, median inhibition concentration (IC50), IL-1β
Procedure: as §1

[4] = biological target: T1, p38α MAP kinase (Homo sapiens, UniProt Q16539); assay: p38α MAP kinase assay; type: biochemical; conditions: immunoprecipitated FLAG-p38α from COS-1 cells, GST-ATF-2 substrate; read-out: IC50 values for the inhibition of p38α MAP kinase, mean concentration
T1 construct: made in house; host or cells: COS-1 cells (transient co-transfection, anti-FLAG M2 immunoprecipitation)
Procedure: Transient Expression of COS-1 Cells
On day one COS-1 cells were seeded in 143 cm^2 petridish with a density of 2×10^4 cells/cm^2 in growth medium. At day 2 the cells were co-transfected with 5 μg (total) of experimental plasmid DNA, expressing the FLAG-p38α and FLAG-MKK6(EE). The plasmids were introduced into the COS-1 cells in serum-free medium using DOTAP™ (Boehringer-Mannheim, Mannheim, Germany). Plasmid DNA was prepared and purified using the QIAGEN EndoToxin-free Maxiprep-500 kit (Hilden, Germany). Briefly, DNA and DOTAP™ were mixed for exactly 15 min. at 37° C. in the CO2 incubator. The transfection-mixture was hereafter transferred to a 15-mL falcon-tube and transfection-medium (DMEM with L-Glutamine and Pen./Strep. but without serum) was added to the transfection-mixture, followed by addition to the cell-monolayer. After 4 hours of incubation with DOTAP™ and plasmids, the medium containing double amount of serum was added to the cells bringing the final concentration of serum up to 10%. […]
The reaction was allowed to proceed for 30 min. at 30° C., and it was stopped by adding 40 μl of 2×SDS-sample buffer to the kinase reaction. […] The dried SDS-PAGE gel was exposed to a Phospho-Imager screen and the radioactive PHAS-1 bands were quantified by the STORM860 Phospho-Imager (Molecular Dynamics, Sunnyvale, Calif., USA) using the ImageQuaNT software.

[5] = Log P of the tested compounds; type: physicochemical

T1 sequence (Q16539 whole entry): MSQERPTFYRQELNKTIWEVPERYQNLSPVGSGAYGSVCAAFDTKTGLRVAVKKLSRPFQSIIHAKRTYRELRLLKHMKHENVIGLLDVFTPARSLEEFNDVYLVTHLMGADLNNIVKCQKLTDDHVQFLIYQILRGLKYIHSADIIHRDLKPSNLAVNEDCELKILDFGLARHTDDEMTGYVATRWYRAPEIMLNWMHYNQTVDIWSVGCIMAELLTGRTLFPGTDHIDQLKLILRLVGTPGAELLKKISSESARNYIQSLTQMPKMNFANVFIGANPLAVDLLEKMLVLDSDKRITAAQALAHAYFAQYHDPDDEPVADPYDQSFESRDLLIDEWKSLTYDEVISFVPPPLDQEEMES

Row | IC50 [1] [nM] | IC50 [2] [nM] | IC50 [3] [nM] | IC50 [4] [nM] | logP [5] | Log P [5] | Structure (SMILES)
1 | 5 | 15 | 31 | 12.8 | 4.2 |  | Cc1ccccc1C(=O)c1ccc(Nc2cncc3ccccc23)cc1Cl [Compound 114, 2-Chloro-4-(4-isoquinolylamino)-2′-methylbenzophenone]
2 | 3.1 | 12.6 | 15.8 |  |  | 4.4 | Cc1ccccc1C(=O)c1ccc(Nc2c[n+]([O-])cc3ccccc23)cc1Cl [Compound 128, 2-Chloro-4((4-isoquinolyl-N-oxide)amino)-2′-methylbenzophenone]
3 | 7.1 | 5 | 13 |  | 4.9 |  | Cc1ccccc1C(=O)c1ccc(Nc2ccccc2N)cc1Cl [Ref. comp., 4-(2-aminophenylamino)-2-chloro-2′-methylbenzophenone, reference compound]
